Values quoted from earlier work in US9290492B2, “Solid forms of antibiotics” (Laboratorios Senosiain S.A. de C.V., priority 2011, dated 2016).

Row | Structure (SMILES) | bioavailability (in vivo) [%] | route of excretion (in vivo) | excreted as the unchanged drug (total) (of an oral or intravenous dose) | excreted as the unchanged drug in feces (of an oral or intravenous dose, feces) [%] | excreted as the unchanged drug in urine (of an oral or intravenous dose, urine) [%]
1 | C[C@H]1COc2c(N3CCN(C)CC3)c(F)cc3c(=O)c(C(=O)O)cn1c23 [Levofloxacin] | 99 | via urine |  |  | 
2 | COc1c(N2C[C@@H]3CCCN[C@@H]3C2)c(F)cc2c(=O)c(C(=O)O)cn(C3CC3)c12 [moxifloxacin, Moxifloxacin] |  | via the liver | Approximately 45% | ~25 | ~20
